pIC50: −log10 of the molar value. Converted amounts (≈) assume the structure as drawn.
Columns and labels:
Staphylococcus aureus [1] = experiment: Antibacterial activity against methicillin susceptible Staphylococcus aureus ATCC 29213; format: functional
Enterococcus faecium [2] = experiment: Antibacterial activity against Enterococcus faecium SR7917 (VRE); format: functional
Enterococcus faecalis [3] = experiment: Antibacterial activity against Enterococcus faecalis ATCC 29212; format: functional
Staphylococcus aureus [4] = experiment: Antibacterial activity against methicillin resistant Staphylococcus aureus SR3637; format: functional
Enterococcus faecium [5] = experiment: Antibacterial activity against Enterococcus faecium ATCC 19434; format: functional
Enterococcus faecalis [6] = experiment: Antibacterial activity against Enterococcus faecalis SR7914 (VRE); format: functional
[7] = biological target: T1, Phospho-N-acetylmuramoyl-pentapeptide-transferase (Staphylococcus aureus, UniProt P0C1R8); experiment: Inhibition of MraY in Staphylococcus aureus
T1 sequence (P0C1R8 whole entry): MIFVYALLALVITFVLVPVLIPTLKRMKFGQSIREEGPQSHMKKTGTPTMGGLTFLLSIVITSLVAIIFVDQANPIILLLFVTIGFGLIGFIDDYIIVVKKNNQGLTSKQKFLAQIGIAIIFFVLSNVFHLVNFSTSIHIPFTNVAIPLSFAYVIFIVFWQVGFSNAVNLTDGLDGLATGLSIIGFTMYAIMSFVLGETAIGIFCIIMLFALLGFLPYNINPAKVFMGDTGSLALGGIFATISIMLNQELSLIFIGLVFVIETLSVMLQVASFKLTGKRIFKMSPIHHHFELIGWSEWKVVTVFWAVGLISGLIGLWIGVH

Haemophilus influenzae = experiment: Antibacterial activity against Haemophilus influenzae ATCC 10211; format: functional
Citrobacter freundii = experiment: Antibacterial activity against Citrobacter freundii ATCC 8090; format: functional
Staphylococcus aureus [8] = experiment: Antibacterial activity against methicillin resistant Staphylococcus aureus ATCC 43300; format: functional
Staphylococcus aureus [9] = experiment: Antibacterial activity against Staphylococcus aureus ATCC 25923; format: functional
Pseudomonas aeruginosa = experiment: Antibacterial activity against Pseudomonas aeruginosa ATCC 27853; format: functional
Escherichia coli [10] = experiment: Antibacterial activity against Escherichia coli ATCC 8730; format: functional
[11] = biological target: T2, Phospho-N-acetylmuramoyl-pentapeptide-transferase (Aquifex aeolicus (strain VF5), UniProt O66465); experiment: Inhibition of MraY in Aquifex aeolicus
T2 sequence (O66465 whole entry): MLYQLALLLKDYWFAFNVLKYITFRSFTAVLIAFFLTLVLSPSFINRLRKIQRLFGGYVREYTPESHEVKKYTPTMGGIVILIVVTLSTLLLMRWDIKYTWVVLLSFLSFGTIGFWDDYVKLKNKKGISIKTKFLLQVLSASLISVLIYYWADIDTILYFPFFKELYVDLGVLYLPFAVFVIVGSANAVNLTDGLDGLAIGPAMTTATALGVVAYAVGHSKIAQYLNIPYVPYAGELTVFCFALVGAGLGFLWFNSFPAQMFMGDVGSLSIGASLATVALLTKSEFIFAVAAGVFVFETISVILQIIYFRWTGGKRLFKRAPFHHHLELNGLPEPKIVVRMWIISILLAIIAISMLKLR

[12] = Antibacterial activity against Mycobacterium avium subsp. avium ATCC 25291; format: functional
[13] = test system: Mycobacterium tuberculosis; experiment: Antibacterial activity against Mycobacterium tuberculosis Kurono; format: functional
Mycolicibacterium vaccae = experiment: Antibacterial activity against Mycobacterium vaccae ATCC 15483; format: functional
Escherichia coli [14] = experiment: Antibacterial activity against Escherichia coli K-12; format: functional
Streptococcus pneumoniae = experiment: Antibacterial activity against Streptococcus pneumoniae PCI 602; format: functional
Bacillus subtilis = experiment: Antibacterial activity against Bacillus subtilis PCI 219; format: functional
[15] = test system: Mycolicibacterium smegmatis; experiment: Antibacterial activity against Mycobacterium smegmatis ATCC 607; format: functional
Staphylococcus aureus [16] = experiment: Antibacterial activity against Staphylococcus aureus FDA 209P; format: functional
[17] = test system: Mycobacterium tuberculosis; experiment: Antibacterial activity against Mycobacterium tuberculosis JCM 6384; format: functional
Staphylococcus aureus [18] = experiment: Antibacterial activity against methicillin resistant Staphylococcus aureus No. 5; format: functional
[19] = test system: Mycobacterium avium subsp. paratuberculosis; experiment: Antibacterial activity against Mycobacterium avium subsp. paratuberculosis ATCC 43015; format: functional
[20] = test system: Mycobacterium tuberculosis; experiment: Antibacterial activity against Mycobacterium tuberculosis H37Rv; format: functional
Mycolicibacterium phlei = experiment: Antibacterial activity against Mycobacterium phlei; format: functional
Staphylococcus aureus [21] = experiment: Antibacterial activity against methicillin resistant Staphylococcus aureus MS16526; format: functional

| Structure (SMILES) | MIC (Enterococcus faecalis [3]) | MIC (Enterococcus faecium [5]) | MIC (Enterococcus faecalis [6]) | MIC [12] | MIC [13] | MIC (Mycolicibacterium vaccae) | MIC (Escherichia coli [14]) | MIC (Streptococcus pneumoniae) | MIC (Bacillus subtilis) | MIC [15] | MIC (Staphylococcus aureus [16]) | MIC [17] | MIC (Staphylococcus aureus [18]) | MIC [19] | MIC [20] | MIC (Mycolicibacterium phlei) | MIC (Staphylococcus aureus [21]) | also measured |
| --- | --- | --- | --- | --- | --- | --- | --- | --- | --- | --- | --- | --- | --- | --- | --- | --- | --- | --- |
| CCCCCCCCCCCCCCCCC[C@H]1CN[C@@H]([C@H](O[C@@H]2O[C@H](CN)[C@@H](O)[C@H]2O)[C@H]2O[C@@H](n3ccc(=O)[nH]c3=O)[C@H](O)[C@@H]2O)C(=O)N(C)[C@@H]1C(=O)O | 8 µg/mL (≈ 10.2 µM) | 8 µg/mL (≈ 10.2 µM) | 16 µg/mL (≈ 20.4 µM) | – | – | – | – | – | – | – | – | – | – | – | – | – | – | MIC (Staphylococcus aureus [1]): 8 µg/mL (≈ 10.2 µM); MIC (Enterococcus faecium [2]): 16 µg/mL (≈ 20.4 µM); MIC (Staphylococcus aureus [4]): 8 µg/mL (≈ 10.2 µM); pIC50 [7]: 5.42 |
| CCCCCCCCCCCCCCCC(=O)OC[C@@H]1[C@H](C(=O)N(C)C)[C@@H]([C@H]2O[C@@H](n3ccc(=O)[nH]c3=O)[C@H](O)[C@@H]2O)ON1CCCN | 16 µg/mL (≈ 23.5 µM) | – | 4 µg/mL (≈ 5.87 µM) | – | – | – | – | – | – | – | – | – | – | – | – | – | – | MIC (Haemophilus influenzae): 0.5 µg/mL (≈ 0.733 µM) |
| NC[C@H]1O[C@@H](O[C@@H](Cn2cc(CCCCCCCCCCc3ccccc3)nn2)[C@H]2O[C@@H](n3ccc(=O)[nH]c3=O)[C@H](O)[C@@H]2O)[C@H](O)[C@@H]1O | – | 32 µg/mL (≈ 47.6 µM) | – | – | – | – | – | – | – | – | – | – | – | – | – | – | – | MIC (Citrobacter freundii): > 128 µg/mL; MIC (Staphylococcus aureus [8]): 16 µg/mL (≈ 23.8 µM); MIC (Staphylococcus aureus [9]): 64 µg/mL (≈ 95.1 µM); MIC (Pseudomonas aeruginosa): 64 µg/mL (≈ 95.1 µM); MIC (Escherichia coli [10]): > 128 µg/mL; pIC50 [11]: 4.52 |
| CCCCCCCCCCCCCCCC(=O)OC[C@@H]1[C@H](C(N)=O)[C@@H]([C@H]2O[C@@H](n3ccc(=O)[nH]c3=O)[C@H](O)[C@@H]2O)ON1CCCN | 16 µg/mL (≈ 24.5 µM) | – | 8 µg/mL (≈ 12.2 µM) | – | – | – | – | – | – | – | – | – | – | – | – | – | – | MIC (Haemophilus influenzae): 0.25 µg/mL (≈ 0.382 µM) |
| NC[C@H]1O[C@@H](O[C@@H](Cc2cn(Cc3ccc(COc4ccc(C(=O)c5ccccc5)cc4)cc3)nn2)[C@H]2O[C@@H](n3ccc(=O)[nH]c3=O)[C@H](O)[C@@H]2O)[C@H](O)[C@@H]1O | – | > 128 µg/mL | – | – | – | – | – | – | – | – | – | – | – | – | – | – | – | MIC (Citrobacter freundii): > 128 µg/mL; MIC (Staphylococcus aureus [8]): 32 µg/mL (≈ 42.3 µM); MIC (Staphylococcus aureus [9]): 64 µg/mL (≈ 84.6 µM); MIC (Pseudomonas aeruginosa): > 128 µg/mL; MIC (Escherichia coli [10]): > 128 µg/mL; pIC50 [11]: 4.70 |
| CCCCCCCNC(=O)C1=CCN(C)[C@@H]([C@H](O[C@@H]2O[C@H](CN)[C@@H](O)[C@H]2O)[C@H]2O[C@@H](n3ccc(=O)[nH]c3=O)[C@H](O)[C@@H]2O)C(=O)N1C | – | – | – | 25 µg/mL (≈ 38.2 µM) | 1.56 µg/mL (≈ 2.38 µM) | > 100 µg/mL | > 100 µg/mL | > 100 µg/mL | > 100 µg/mL | 25 µg/mL (≈ 38.2 µM) | 6.25 µg/mL (≈ 9.55 µM) | 50 µg/mL (≈ 76.4 µM) | > 100 µg/mL | 25 µg/mL (≈ 38.2 µM) | 3.13 µg/mL (≈ 4.78 µM) | > 100 µg/mL | > 100 µg/mL | – |
| CCCCCCNC(=O)C1=CCN(C)[C@@H]([C@H](O[C@@H]2O[C@H](CN)[C@@H](O)[C@H]2O)[C@H]2O[C@@H](n3ccc(=O)[nH]c3=O)[C@H](O)[C@@H]2O)C(=O)N1C | – | – | – | 12.5 µg/mL (≈ 19.5 µM) | 1.56 µg/mL (≈ 2.43 µM) | 100 µg/mL (≈ 156 µM) | > 100 µg/mL | > 100 µg/mL | 25 µg/mL (≈ 39 µM) | 50 µg/mL (≈ 78 µM) | > 100 µg/mL | 1.56 µg/mL (≈ 2.43 µM) | > 100 µg/mL | 0.78 µg/mL (≈ 1.22 µM) | 3.16 µg/mL (≈ 4.93 µM) | 100 µg/mL (≈ 156 µM) | > 100 µg/mL | – |
| CCCCCCCCCCCNC(=O)C1=CCN(C)[C@@H]([C@H](O[C@@H]2O[C@H](CN)[C@@H](O)[C@H]2O)[C@H]2O[C@@H](n3ccc(=O)[nH]c3=O)[C@H](O)[C@@H]2O)C(=O)N1C | – | – | – | 3.13 µg/mL (≈ 4.4 µM) | 1.56 µg/mL (≈ 2.19 µM) | 1.56 µg/mL (≈ 2.19 µM) | > 100 µg/mL | 50 µg/mL (≈ 70.3 µM) | 0.39 µg/mL (≈ 0.549 µM) | < 0.2 µg/mL | 6.25 µg/mL (≈ 8.79 µM) | 0.2 µg/mL (≈ 0.281 µM) | 25 µg/mL (≈ 35.2 µM) | 0.2 µg/mL (≈ 0.281 µM) | 1.56 µg/mL (≈ 2.19 µM) | 0.39 µg/mL (≈ 0.549 µM) | 12.5 µg/mL (≈ 17.6 µM) | – |
